From US4015974A, “Amido phosphorothiolates” (priority 1972, dated 1977) come the findings set out here.

SMILES strings stand for the structures. ≈ marks a conversion by molar mass, not a printed value. Like-named read-outs stand apart in the source and are kept apart here.

Holding throughout (type): in vivo
Series [1] relates to common purslane (Portulaca oleracea). The series can be described thus: Pre-emergence application, herbicidal effect on common purslane (Table 1). To be noted: 20 days after application, score 0-5. The essentials: (§1)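 Soil treatment after sowing, pre-emergence; wettable powder formulations diluted with water. Greenhouse, 20 d. Score 0 = no damage, 5 = complete kill.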
Series [2] concerns redroot pigweed (Amaranthus retroflexus). The series can be described thus: Pre-emergence application, herbicidal effect on redroot pigweed (Table 1). The conditions noted are these: 20 days after application, score 0-5. A digest of the protocol:
as §1

Series [3] deals with broad-leaved weeds, e.g., monochoria, false pimpernel and toothcup. Kind of series: Water application, herbicidal effect on broad-leaved weeds (Table 2). Further details: key: 0: no effect; 1: very slightly affected; 2: slightly affected; 3: moderately affected; 4: considerably affected; 5: completely killed. The conditions noted are these: 10 g/a, 25 days, score 0-5. An excerpt:
Wagner pots of 14 cm. in diameter, which had been packed with 1.5 kg. of paddy field soil, were brought into the state of paddy fields. To the pots were transplanted rice seedlings at the 3-leave stage. Further, seeds of barnyard grass (Echinochloa crus-galli) were sowed in the pots and required amounts of test compounds were applied to the soil under water lodged condition. 25 days after application, the degrees of herbicidal activity and phytotoxity were investigated on above-mentioned plants which had been transplanted and sowed, and on broad-leaved weeds, e.g., monochoria (Monochoria viaginalis Presl.), false pimpernel (Linderna pyxidaria) and toothcup (Rotala indica Koehue), which had been spontaneously germinated. The test compounds were used in the form of wettable powder. The herbicidal effects and the phytotoxity were evaluated as follows by the numerals ranging from 0 to 5.

The subject of the next series is radish. Kind of series: Pre-emergence application, herbicidal effect on radish (Table 1). More on the design: key: 0: not damaged; 5: completely killed. To be noted: 20 days after application, score 0-5. The essentials:
as §1

Series [4] relates to barnyard grass (Echinochloa crus-galli). Kind of series: Pre-emergence application, herbicidal effect on barnyard grass (Table 1). Further details: key: 0: not damaged; 5: completely killed. The conditions noted are these: 20 days after application, score 0-5. A digest of the protocol:
as §1

Series [5] shares this test system. The series can be described thus: Water application, herbicidal effect on barnyard grass (Table 2). More on the design: key: 0: not damaged; 5: completely killed. To be noted: 25 days, score 0-5. A digest of the protocol: (§2)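 Paddy-soil pots flooded to paddy conditions; rice transplanted at 3-leaf stage, barnyard grass sown, broad-leaved weeds germinating spontaneously. Test compounds applied as wettable powder to soil under flooded water. Herbicidal effect and rice phytotoxicity scored 0–5 at 25 days after application.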

In series [6] the test system is broad-leaved weeds, e.g., monochoria, false pimpernel and toothcup. The series can be described thus: Water application, herbicidal effect on broad-leaved weeds (Table 2). More on the design: key: 0: not damaged; 5: completely killed. To be noted: 25 days, score 0-5. A digest of the protocol:
as §2

In series [7] the test system is large crabgrass (Digitaria sanguinalis). The series can be described thus: Pre-emergence application, herbicidal effect on large crabgrass (Table 1). Further details: key: 0: not damaged; 5: completely killed. The conditions noted are these: 20 days after application, score 0-5. A digest of the protocol:
as §1

Another series relates to nematode. Kind of series: Effect on nematode (Table 7). Further details: tested at 500 ppm. The conditions noted are these: 500 p.p.m., 24 hours. The procedure:
0.5 ml. of a nematode-containing aqueous solution separated from food according to Baermann's method was placed in a test tube with ground stopper containing 0.5 ml. of an aqueous dilute solution of each emulsifiable concentrates of the present compounds. The concentration of the active ingredient in the mixture was adjusted to 500 p.p.m. After 24 hours, the death and alive were observed microscopically to calculate the mortality.

For series [8], the system named is common lambsquarter (Chenopodium album). The series can be described thus: Pre-emergence application, herbicidal effect on common lambsquarter (Table 1). Further details: key: 0: not damaged; 5: completely killed. To be noted: 20 days after application, score 0-5. The essentials:
as §1

The subject of the next series is rice. The series can be described thus: Water application, phytotoxicity on rice (Table 2). Further details: key: 0: no effect; 1: very slightly affected; 2: slightly affected; 3: moderately affected; 4: considerably affected; 5: completely killed. The conditions noted are these: 25 days, score 0-5. The essentials: as §2
The subject of series [9] is carmine mite (Tetranychus telavius). The series can be described thus: Lethal effect on carmine mite, leaf dipping (Table 3). The conditions noted are these: foliar. The procedure:
A large number of carmine mite adult were made parasitic on leaves of potted kidney beans at a 2-leaves stage which had elapsed 10 days after sowing. The leaves of kidney bean on which carmine mites had been made parasitic were dipped for 1 minute in each aqueous solution of the present compounds of wettable powder type. Water was given to the leaves not to kill them, and after 48 hours the death and alive were observed microscopically to calculate the mortality. Values of LC50 were obtained from the mortality.

On to `CCOP(=O)(SCC(=O)N1CCCCC1C)SC1CCCCC1` (stereo not drawn) [Compound 10], for which the “Herbicidal effect, common purslane” value in series [1] (10 g./a.) came to 3; in [1] (20 g./a.) it was 4; in [1] (40 g./a.), 4. Further, the “Herbicidal effect, redroot pigweed” value in [2] (10 g./a.) is 3; in [2] (20 g./a.), 4; in series [2] (40 g./a.) it was 4. For the same compound, the “Herbicidal effects, broad-leaved weeds” value is given as 4 in series [3], 5 in [6] (20 g/a) and 5 in series [6] (40 g/a). Further, the “Herbicidal effect, radish” value in the series on radish (10 g./a.), in the series on radish (20 g./a.) and in the series on radish (40 g./a.) was 0 each time. Besides, the “Herbicidal effect, barnyard grass” value in [4] (10 g./a.) was 4; in [4] (20 g./a.), 4; in series [4] (40 g./a.), 5. Besides, the “Herbicidal effects, barnyard grass” value in series [5] (10 g/a), in series [5] (20 g/a) and in series [5] (40 g/a) was 5 throughout. Besides, the “Herbicidal effect, large crabgrass” value in [7] (10 g./a.) worked out at 4; in series [7] (20 g./a.), 4; in series [7] (40 g./a.), 5. The Mortality with nematode is 100%. Besides, the “Herbicidal effect, common lambsquarter” value in series [8] (10 g./a.) worked out at 3; in series [8] (20 g./a.), 4; in [8] (40 g./a.), 4. Further, the Phytotoxicity on rice with rice (10 g/a), with rice (20 g/a) and in the series with rice (40 g/a) was 0 in each case.

Take `CCCCSP(=O)(OCCC)SCC(=O)N1CCCCC1C` (stereo not drawn) [Compound 17]: the “Herbicidal effect, common purslane” value in series [1] (10 g./a.) stood at 3; in [1] (20 g./a.), 4; in [1] (40 g./a.), 4. Moreover, the “Herbicidal effect, redroot pigweed” value is 3 in series [2] (10 g./a.), 4 in [2] (20 g./a.) and 4 in series [2] (40 g./a.). For the same compound, the “Herbicidal effects, broad-leaved weeds” value is on record as 4 in series [3], 5 in series [6] (20 g/a) and 5 in series [6] (40 g/a). Further, the “Herbicidal effect, radish” value in the series on radish (10 g./a.), in the series with radish (20 g./a.) and with radish (40 g./a.) was 0 in each case. Also, the “Herbicidal effect, barnyard grass” value was 4 in series [4] (10 g./a.), 4 in series [4] (20 g./a.) and 5 in series [4] (40 g./a.). The “Herbicidal effects, barnyard grass” value in series [5] (10 g/a), in series [5] (20 g/a) and in series [5] (40 g/a) was 5 throughout. In addition, the results for the “Herbicidal effect, large crabgrass” value in series [7] (10 g./a.), in series [7] (20 g./a.) and in series [7] (40 g./a.) were 4, 5 and 5, respectively. For the same compound, the entries for the “Herbicidal effect, common lambsquarter” value in series [8] (10 g./a.), in series [8] (20 g./a.) and in series [8] (40 g./a.) were 4, 4 and 5, respectively. Moreover, the Phytotoxicity on rice with rice (10 g/a), with rice (20 g/a) and in the series with rice (40 g/a) was 0 each time.

On to `CCCOP(=O)(SCCc1ccccc1)SCC(=O)N1CCCCC1CC` (stereo not drawn) [Compound 19], for which the “Herbicidal effect, common purslane” value in series [1] (10 g./a.), in [1] (20 g./a.) and in series [1] (40 g./a.) was 4 each time. Moreover, the “Herbicidal effect, redroot pigweed” value in series [2] (10 g./a.), in [2] (20 g./a.) and in series [2] (40 g./a.) was 4 each time. In addition, the “Herbicidal effects, broad-leaved weeds” value in series [3] is recorded as 4; in series [6] (20 g/a), 5; in [6] (40 g/a), 5. Also, the “Herbicidal effect, radish” value in the series on radish (10 g./a.), in the series with radish (20 g./a.) and in the series on radish (40 g./a.) was 0 in each case. Besides, the “Herbicidal effect, barnyard grass” value is on record as 4 in series [4] (10 g./a.), 4 in series [4] (20 g./a.) and 5 in [4] (40 g./a.). The “Herbicidal effects, barnyard grass” value in series [5] (10 g/a), in series [5] (20 g/a) and in series [5] (40 g/a) was 5 each time. The figures for the “Herbicidal effect, large crabgrass” value in [7] (10 g./a.), in [7] (20 g./a.) and in series [7] (40 g./a.) were 4, 4 and 5, respectively. For the same compound, the “Herbicidal effect, common lambsquarter” value in series [8] (10 g./a.) turned out to be 3; in series [8] (20 g./a.), 4; in series [8] (40 g./a.), 4. Besides, the Phytotoxicity on rice in the series with rice (10 g/a), in the series on rice (20 g/a) and in the series with rice (40 g/a) was 0 in each case.

Regarding `CCCSP(=O)(OC)SCC(=O)N1CCCCC1C` (stereo not drawn) [Compound 30], in [9] (48 h), the LC50 came out at 22.8 µg/mL (≈ 70.1 µM).

For `CCCOP(=O)(SCC(=O)N1CCCCC1C)SC(C)C` (stereo not drawn) [Compound 36], the entries for the “Herbicidal effect, common purslane” value in [1] (10 g./a.), in series [1] (20 g./a.) and in series [1] (40 g./a.) were 3, 4 and 4, respectively. Moreover, the figures for the “Herbicidal effect, redroot pigweed” value in series [2] (10 g./a.), in series [2] (20 g./a.) and in series [2] (40 g./a.) were 3, 4 and 4, respectively. Further, the “Herbicidal effects, broad-leaved weeds” value in [3] is reported as 4; in series [6] (20 g/a), 5; in series [6] (40 g/a), 5. The “Herbicidal effect, radish” value in the series on radish (10 g./a.), in the series on radish (20 g./a.) and in the series on radish (40 g./a.) was 0 each time. Moreover, the results for the “Herbicidal effect, barnyard grass” value in series [4] (10 g./a.), in series [4] (20 g./a.) and in series [4] (40 g./a.) were 4, 4 and 5, respectively. Besides, the “Herbicidal effects, barnyard grass” value in [5] (10 g/a), in [5] (20 g/a) and in series [5] (40 g/a) was 5 throughout. Moreover, the “Herbicidal effect, large crabgrass” value in series [7] (10 g./a.) is 4; in [7] (20 g./a.) it was 4; in series [7] (40 g./a.) it was 5. Moreover, the “Herbicidal effect, common lambsquarter” value in series [8] (10 g./a.) came to 4; in series [8] (20 g./a.), 4; in series [8] (40 g./a.) it was 5. The Phytotoxicity on rice in the series on rice (10 g/a), in the series with rice (20 g/a) and in the series with rice (40 g/a) was 0 throughout.

With `CC(COc1ccc(C(C)(C)C)cc1)OCC(C)OS(=O)OCCl` (stereo not drawn) [Smite, reference compound], the LC50 in series [9] (leaves dipped 1 minute, wettable powder, 48 hours, read-out: LC50) was 102 µg/mL (≈ 269 µM).

Broadly, the LC50 is the concentration lethal to half of the exposed cells or organisms.
